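Results reflect a 48-hour exposure of cells in 96-well plates to compound at five concentrations. GI50: concentration for 50% inhibition of growth.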 Calls of active or inactive are those of the source. Rule as the data show it: active = GI50 up to about 1.1 µM and inactive = higher.
What was measured:
Assay in all cases: DTP human tumour cell line panel, 48 h
IGROV-1 = system: IGROV-1
UACC-257 = system: UACC-257
HCC 2998 = system: HCC 2998
RXF 393 = system: RXF 393
SN12C = system: SN12C
KM12 = system: KM12
OVCAR-5 = system: OVCAR-5
NCI-H226 = system: NCI-H226
HOP-62 = system: HOP-62
SR = system: SR
COLO 205 = system: COLO 205
SW-620 = system: SW-620
OVCAR-8 = system: OVCAR-8
MDA-MB-435 = system: MDA-MB-435
UO-31 = system: UO-31
MCF7 = system: MCF7
MDA-N = system: MDA-N
DU-145 = system: DU-145
PC-3 = system: PC-3
RPMI-8226 = system: RPMI-8226

Measured: GI50

Nc1nc(SCc2ccc([N+](=O)[O-])cc2)nc2c1ncn2C1OC(COP(=O)(O)O)C(O)C1O (configuration not stated)
inactive: IGROV-1 > 100 µM | UACC-257 > 100 µM | HCC 2998 > 100 µM | RXF 393 > 100 µM | SN12C > 100 µM | KM12 > 100 µM | OVCAR-5 > 100 µM | NCI-H226 > 100 µM | HOP-62 > 100 µM | SR > 100 µM | COLO 205 > 100 µM | SW-620 > 100 µM | OVCAR-8 > 100 µM

O=C(OC1C=C=CS(=O)(=O)CC#C/C=C\1)c1cnc2ccccc2n1 (configuration not stated)
inactive: MDA-MB-435 > 100 µM | IGROV-1 79.6 µM | UO-31 76.6 µM | MCF7 27.5 µM | UACC-257 > 100 µM | MDA-N 52 µM | HCC 2998 > 100 µM | RXF 393 > 100 µM | DU-145 > 100 µM | SN12C > 100 µM | KM12 > 100 µM | OVCAR-5 > 100 µM | NCI-H226 > 100 µM | HOP-62 > 100 µM | SR 68.9 µM | PC-3 > 100 µM | COLO 205 63.7 µM | SW-620 40.8 µM | RPMI-8226 57 µM | OVCAR-8 > 100 µM

COC(=O)/C=C(C)/C=C\COC1CCCCO1 (configuration not stated)
inactive: MDA-MB-435 > 100 µM | IGROV-1 > 100 µM | UO-31 > 100 µM | MCF7 > 100 µM | UACC-257 > 100 µM | MDA-N > 100 µM | HCC 2998 > 100 µM | RXF 393 > 100 µM | DU-145 > 100 µM | SN12C > 100 µM | KM12 > 100 µM | OVCAR-5 > 100 µM | NCI-H226 > 100 µM | HOP-62 > 100 µM | SR > 100 µM | PC-3 > 100 µM | COLO 205 > 100 µM | SW-620 > 100 µM | RPMI-8226 > 100 µM | OVCAR-8 > 100 µM

COc1cc(/C=N\O)cc(/C=N/O)c1O
inactive: MDA-MB-435 40 µM | IGROV-1 > 100 µM | UO-31 5.94 µM | MCF7 60.8 µM | UACC-257 74 µM | MDA-N 39.9 µM | RXF 393 23.6 µM | DU-145 > 100 µM | SN12C 31 µM | KM12 > 100 µM | OVCAR-5 44.3 µM | NCI-H226 24.2 µM | HOP-62 21.9 µM | SR 26.3 µM | PC-3 28.9 µM | COLO 205 22.5 µM | SW-620 73.1 µM | RPMI-8226 15.5 µM | OVCAR-8 37.1 µM

O=C(NN1C(=O)C(Cl)C1c1cccc(O)c1)c1ccccc1O (configuration not stated)
inactive: IGROV-1 > 100 µM | UO-31 > 100 µM | UACC-257 > 100 µM | HCC 2998 > 100 µM | RXF 393 > 100 µM | SN12C > 100 µM | KM12 > 100 µM | NCI-H226 > 100 µM | OVCAR-8 > 100 µM

N#Cc1c(-c2ccc([N+](=O)[O-])cc2)cc(-c2ccc(Nc3ccnc4cc(C(F)(F)F)ccc34)cc2)nc1N
inactive: MDA-MB-435 9.14 µM | IGROV-1 8.53 µM | UO-31 14.7 µM | MCF7 2.59 µM | UACC-257 > 50 µM | MDA-N 9.77 µM | HCC 2998 14.1 µM | RXF 393 19.1 µM | DU-145 13.1 µM | SN12C 17.9 µM | KM12 7.19 µM | OVCAR-5 30.9 µM | NCI-H226 > 48.3 µM | HOP-62 21.3 µM | SR 1.79 µM | PC-3 18.9 µM | COLO 205 28.3 µM | SW-620 8.3 µM | RPMI-8226 4.27 µM | OVCAR-8 20.1 µM

COC(=O)C12CCCN1CCC2
inactive: MDA-MB-435 > 100 µM | UO-31 > 100 µM | MCF7 > 100 µM | UACC-257 > 100 µM | MDA-N > 100 µM | HCC 2998 > 100 µM | RXF 393 > 100 µM | DU-145 > 100 µM | SN12C > 100 µM | KM12 > 100 µM | OVCAR-5 > 100 µM | NCI-H226 > 100 µM | HOP-62 > 100 µM | SR > 100 µM | PC-3 > 100 µM | COLO 205 > 100 µM | SW-620 > 100 µM

O=S(=O)(O)c1cc(/N=[N+](\[O-])c2ccc(/N=N/c3ccccc3)cc2S(=O)(=O)O)ccc1/C=C/c1ccc(/N=[N+](\[O-])c2ccc(/N=N/c3ccccc3)cc2S(=O)(=O)O)cc1S(=O)(=O)O
inactive: IGROV-1 > 100 µM | UO-31 > 100 µM | MCF7 > 100 µM | UACC-257 > 100 µM | HCC 2998 > 100 µM | RXF 393 > 100 µM | SN12C > 100 µM | KM12 > 100 µM | OVCAR-5 > 100 µM | NCI-H226 > 32.6 µM | HOP-62 > 100 µM | COLO 205 > 100 µM | SW-620 > 100 µM | RPMI-8226 > 100 µM | OVCAR-8 > 100 µM

CCOC(=O)c1csc(NC(=O)CN2CCOCC2)n1
inactive: MDA-MB-435 > 100 µM | IGROV-1 > 100 µM | UO-31 > 100 µM | MCF7 > 100 µM | UACC-257 > 100 µM | MDA-N > 100 µM | HCC 2998 > 100 µM | RXF 393 > 100 µM | DU-145 > 100 µM | KM12 > 100 µM | OVCAR-5 > 100 µM | HOP-62 > 100 µM | SR > 100 µM | PC-3 > 100 µM | COLO 205 > 100 µM | SW-620 > 100 µM | RPMI-8226 > 100 µM | OVCAR-8 > 100 µM

COc1cc2c(cc1OC)C(Cl)C(c1ccc(Cl)c(Cl)c1)=C2Cl (configuration not stated)
inactive: IGROV-1 10.7 µM | UO-31 10.6 µM | SN12C 9.27 µM | NCI-H226 8.99 µM | COLO 205 10.7 µM | SW-620 6.18 µM | RPMI-8226 3.14 µM | OVCAR-8 6.62 µM

C[C@]12Cc3cn[nH]c3C(=O)C1CC[C@@H]1C2CC[C@@]2(C)C1CC[C@]2(C)O (some centres not stated)
inactive: IGROV-1 > 100 µM | UO-31 > 100 µM | UACC-257 > 100 µM | HCC 2998 > 100 µM | RXF 393 > 100 µM | SN12C > 100 µM | KM12 > 100 µM | OVCAR-5 > 100 µM | NCI-H226 > 100 µM | HOP-62 > 100 µM | COLO 205 > 100 µM | SW-620 > 100 µM | RPMI-8226 > 100 µM | OVCAR-8 > 100 µM

NC(=O)N/C=C1\C(=O)Oc2ccccc2C1=O
inactive: IGROV-1 > 100 µM | UO-31 31.9 µM | UACC-257 89.9 µM | HCC 2998 > 100 µM | RXF 393 17.4 µM | SN12C 64.4 µM | KM12 > 100 µM | OVCAR-5 35.3 µM | NCI-H226 > 100 µM | HOP-62 > 100 µM | COLO 205 > 100 µM | SW-620 > 100 µM | RPMI-8226 > 100 µM | OVCAR-8 > 100 µM

Reference: ChEMBL document CHEMBL1201862, “PubChem BioAssay data set” (2004)
